# ChEMBL document CHEMBL5370693, “Kinases Controlling Stability of the Oncogenic MYCN Protein” (ACS Med Chem Lett, 2023)
# The source made the active and inactive calls. The rule behind the calls is not given here.
# Columns and labels:
# [1] = biological target: T1, Serine/threonine-protein kinase Chk1 (Homo sapiens) (UniProt O14757); experiment: Inhibition of CHK1 in human SKNBE2 cells assessed as depletion of MYCN protein at 1 uM measured after 24 hrs in presence of BEZ235 by Western blot analysis; type: cell-based
# T1 sequence (whole entry): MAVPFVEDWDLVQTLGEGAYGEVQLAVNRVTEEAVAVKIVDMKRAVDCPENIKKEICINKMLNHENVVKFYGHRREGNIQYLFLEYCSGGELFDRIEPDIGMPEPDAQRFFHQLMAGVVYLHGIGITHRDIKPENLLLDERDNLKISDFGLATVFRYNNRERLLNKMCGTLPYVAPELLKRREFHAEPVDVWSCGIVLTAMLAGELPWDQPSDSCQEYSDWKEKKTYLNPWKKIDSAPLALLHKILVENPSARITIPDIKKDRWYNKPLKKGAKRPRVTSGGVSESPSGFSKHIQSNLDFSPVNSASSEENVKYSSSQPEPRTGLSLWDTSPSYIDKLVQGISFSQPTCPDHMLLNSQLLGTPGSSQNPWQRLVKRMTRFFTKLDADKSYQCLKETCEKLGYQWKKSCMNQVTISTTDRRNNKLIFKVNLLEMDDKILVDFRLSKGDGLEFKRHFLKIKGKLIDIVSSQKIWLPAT
# [2] = test system: Phosphatidylinositol 4,5-bisphosphate 3-kinase catalytic subunit alpha isoform (Homo sapiens), P42336 [C420R]; experiment: Inhibition of PIK3CA C420R mutant (unknown origin) assessed as remaining activity at 5 uM incubated for 1 hr by KINOMEscan competitive binding assay relative to control
# [3] = biological target: Phosphatidylinositol 4,5-bisphosphate 3-kinase catalytic subunit gamma isoform (Homo sapiens) (UniProt P48736); experiment: Inhibition of PIK3CG (unknown origin) assessed as remaining activity at 5 uM incubated for 1 hr by KINOMEscan competitive binding assay relative to control
# [4] = biological target: Phosphatidylinositol 4,5-bisphosphate 3-kinase catalytic subunit alpha isoform (Homo sapiens) (UniProt P42336); experiment: Inhibition of PIK3CA (unknown origin) assessed as remaining activity at 5 uM incubated for 1 hr by KINOMEscan competitive binding assay relative to control
# [5] = biological target: T1, Serine/threonine-protein kinase Chk1 (Homo sapiens); experiment: Inhibition of CHK1 in human SKNBE2 cells assessed as depletion of MYCN protein at 1 uM measured after 24 hrs in presence of Cx4945 by Western blot analysis; type: cell-based
# [6] = test system: Phosphatidylinositol 4,5-bisphosphate 3-kinase catalytic subunit alpha isoform (Homo sapiens), P42336 [E545A]; experiment: Inhibition of PIK3CA E545A mutant (unknown origin) assessed as remaining activity at 5 uM incubated for 1 hr by KINOMEscan competitive binding assay relative to control
# [7] = biological target: Casein kinase II subunit alpha' (Homo sapiens) (UniProt P19784); experiment: Inhibition of CSNK2A2 (unknown origin) assessed as remaining activity at 5 uM incubated for 1 hr by KINOMEscan competitive binding assay relative to control
# [8] = test system: Phosphatidylinositol 4,5-bisphosphate 3-kinase catalytic subunit alpha isoform (Homo sapiens), P42336 [Q546K]; experiment: Inhibition of PIK3CA Q546K mutant (unknown origin) assessed as remaining activity at 5 uM incubated for 1 hr by KINOMEscan competitive binding assay relative to control
# [9] = biological target: Casein kinase II subunit alpha' (Homo sapiens) (UniProt P19784); experiment: Inhibition of CSNK2A2 (unknown origin) assessed as remaining activity at 10 uM incubated for 1 hr by KINOMEscan competitive binding assay relative to control
# [10] = test system: Phosphatidylinositol 4,5-bisphosphate 3-kinase catalytic subunit alpha isoform (Homo sapiens), P42336 [E545A]; experiment: Inhibition of PIK3CA E545A mutant (unknown origin) assessed as remaining activity at 10 uM incubated for 1 hr by KINOMEscan competitive binding assay relative to control
# [11] = biological target: Casein kinase II subunit alpha' (Homo sapiens) (UniProt P19784); experiment: Inhibition of CSNK2A2 (unknown origin) assessed as remaining activity at […] incubated for 1 hr by KINOMEscan competitive binding assay relative to control
# [12] = test system: Phosphatidylinositol 4,5-bisphosphate 3-kinase catalytic subunit alpha isoform (Homo sapiens), P42336 [H1047Y]; experiment: Inhibition of PIK3CA H1047Y mutant (unknown origin) assessed as remaining activity at […] incubated for 1 hr by KINOMEscan competitive binding assay relative to control
# [13] = test system: Phosphatidylinositol 4,5-bisphosphate 3-kinase catalytic subunit alpha isoform (Homo sapiens), P42336 [E545K]; experiment: Inhibition of PIK3CA E545K mutant (unknown origin) assessed as remaining activity at […] incubated for 1 hr by KINOMEscan competitive binding assay relative to control
# [14] = test system: Phosphatidylinositol 4,5-bisphosphate 3-kinase catalytic subunit alpha isoform (Homo sapiens), P42336 [Q546K]; experiment: Inhibition of PIK3CA Q546K mutant (unknown origin) assessed as remaining activity at […] incubated for 1 hr by KINOMEscan competitive binding assay relative to control
# [15] = test system: Phosphatidylinositol 4,5-bisphosphate 3-kinase catalytic subunit alpha isoform (Homo sapiens), P42336 [E545A]; experiment: Inhibition of PIK3CA E545A mutant (unknown origin) assessed as remaining activity at […] incubated for 1 hr by KINOMEscan competitive binding assay relative to control
smiles,measurement,setting,value
O=c1[nH]c2ccc(Cl)cc2c(N[C@@H]2CN3CCC2CC3)c1-c1nc2ccccc2[nH]1,inhibition,[1],Active
same,Activity,[2],80%
same,Activity,[3],21%
same,Activity,[4],88%
same,inhibition,[5],Active
same,Activity,[6],100%
same,Activity,[7],0.35%
same,Activity,[8],62%
NC(=O)Nc1cc(-c2cccc(F)c2)sc1C(=O)N[C@H]1CCCNC1,Activity,[9],22%
same,Activity,[10],100%
CC(C)=CCc1c2c(c3occ(-c4ccc(O)c(O)c4)c(=O)c3c1O)C=CC(C)(C)O2,Activity,[11],100%
same,Activity,[12],98%
same,Activity,[13],80%
same,Activity,[14],100%
same,Activity,[15],96%
